The assay addresses HLA B*1503 (Homo sapiens, UniProt P01889, A329T/A93T/A95T/C349S/D201E/D98Y/E187L/E204Q/K202T/N87E/Q94N/R155S/R180L/S121R/S35A/V306I/V36M/Y140S/Y91S). The experiment in a line: biochemical. The class given is binding.

Where a SMILES comes first, the peptide text is derived from it.

Regarding `CC[C@H](C)[C@H](NC(=O)[C@H](CO)NC(=O)[C@H](Cc1ccc(O)cc1)NC(=O)[C@@H](NC(=O)[C@H](C)NC(=O)[C@H](Cc1c[nH]cn1)NC(=O)[C@@H](N)CC(C)C)C(C)C)C(=O)N[C@H](C(=O)N[C@@H](Cc1ccccc1)C(=O)O)C(C)C` [3102.1145] (H-LHAVYSIVF-OH), the IC50 (usually the concentration needed to halve the response being measured) was 8.8 nM.
In turn, `CC[C@H](C)[C@H](N)C(=O)N[C@@H](CCCCN)C(=O)N[C@@H](CCC(=O)O)C(=O)N[C@@H](CC(N)=O)C(=O)N[C@@H](CO)C(=O)N[C@H](C(=O)N[C@@H](Cc1ccc(O)cc1)C(=O)N[C@@H](CO)C(=O)N[C@@H](Cc1ccccc1)C(=O)O)[C@@H](C)CC` [3102.1146] (H-IKENSIYSF-OH) had an IC50 of 1.5 nM.
As to `CC[C@H](C)[C@H](NC(=O)[C@H](CO)NC(=O)[C@H](CO)NC(=O)[C@H](CO)NC(=O)[C@H](Cc1ccc(O)cc1)NC(=O)[C@H](C)NC(=O)[C@H](CC(C)C)NC(=O)[C@@H](N)C(C)C)C(=O)N[C@@H](Cc1ccccc1)C(=O)O` [3102.1150] (H-VLAYSSSIF-OH), the 50% inhibitory concentration (IC50) turned out to be 5.4 nM.
Then `CC[C@H](C)[C@H](N)C(=O)N[C@@H](Cc1c[nH]cn1)C(=O)N[C@H](C(=O)N1CCC[C@H]1C(=O)N[C@@H](CCC(N)=O)C(=O)N[C@@H](CO)C(=O)N[C@@H](CCC(N)=O)C(=O)N[C@@H](CC(C)C)C(=O)N[C@@H](Cc1ccccc1)C(=O)O)[C@@H](C)CC` [3102.1155] (H-IHIPQSQLF-OH), with 5.5 nM.
`CC[C@H](C)[C@H](NC(=O)[C@H](CO)NC(=O)[C@@H](N)Cc1ccccc1)C(=O)N[C@@H](CC(C)C)C(=O)N[C@@H](Cc1ccccc1)C(=O)N[C@@H](CO)C(=O)N[C@@H](CC(N)=O)C(=O)N[C@@H](CC(N)=O)C(=O)N[C@@H](Cc1ccccc1)C(=O)O` [3102.1156] (H-FSILFSNNF-OH) came in with a half-maximal inhibitory concentration (IC50) of 30 nM.
As for `CC[C@H](C)[C@H](N)C(=O)N[C@@H](CCC(N)=O)C(=O)N[C@@H](Cc1ccccc1)C(=O)N[C@@H](CCSC)C(=O)N[C@@H](Cc1c[nH]cn1)C(=O)N[C@@H](CCC(=O)O)C(=O)N[C@@H](CCC(N)=O)C(=O)NCC(=O)N[C@@H](Cc1ccc(O)cc1)C(=O)O` [3102.1159] (H-IQFMHEQGY-OH), the figure is 3.7 nM; as for `CSCC[C@H](NC(=O)[C@@H](N)[C@@H](C)O)C(=O)N[C@H](C(=O)N[C@@H](CC(N)=O)C(=O)N[C@@H](CO)C(=O)N[C@@H](CC(C)C)C(=O)N[C@H](C(=O)N[C@@H](Cc1ccc(O)cc1)C(=O)N[C@@H](Cc1ccccc1)C(=O)O)[C@@H](C)O)C(C)C` [3102.1160] (H-TMVNSLTYF-OH), 0.13 nM; as for `CC(C)C[C@H](NC(=O)[C@@H](N)CCCCN)C(=O)N[C@H](C(=O)N[C@@H](CO)C(=O)N[C@H](C(=O)N[C@@H](CCC(=O)O)C(=O)N[C@H](C(=O)N[C@@H](CO)C(=O)N[C@@H](Cc1ccccc1)C(=O)O)[C@@H](C)O)[C@@H](C)O)[C@@H](C)O` [3102.1165] (H-KLTSTETSF-OH), 25 nM.
Then `CC[C@H](C)[C@H](NC(=O)[C@@H](NC(=O)[C@H](C)NC(=O)[C@H](CS)NC(=O)[C@H](CCCNC(=N)N)NC(=O)[C@@H](NC(=O)[C@@H](N)Cc1ccccc1)[C@@H](C)O)C(C)C)C(=O)N1CCC[C@H]1C(=O)N[C@@H](Cc1ccccc1)C(=O)O` [3102.1166] (H-FTRCAVIPF-OH), with 5.4 nM; and `CC(C)C[C@H](NC(=O)[C@H](Cc1c[nH]c2ccccc12)NC(=O)[C@H](CCCCN)NC(=O)[C@H](C)NC(=O)[C@H](CCCCN)NC(=O)[C@@H](N)Cc1ccccc1)C(=O)N[C@H](C(=O)N1CCC[C@H]1C(=O)N[C@@H](Cc1ccccc1)C(=O)O)[C@@H](C)O` [3102.1174] (H-FKAKWLTPF-OH), with 0.073 nM; and `NCCCC[C@H](NC(=O)[C@H](CC(=O)O)NC(=O)[C@H](CC(N)=O)NC(=O)[C@H](CC(N)=O)NC(=O)[C@H](Cc1ccc(O)cc1)NC(=O)[C@H](CCCCN)NC(=O)[C@@H](N)CCCCN)C(=O)N[C@@H](CO)C(=O)N[C@@H](Cc1ccccc1)C(=O)O` [3102.1179] (H-KKYNNDKSF-OH), with 0.078 nM.

These data come from PMC2248166, “Quantitative peptide binding motifs for 19 human and mouse MHC class I molecules derived using positional scanning combinatorial peptide libraries” (Immunome Research, 2008).
